Like-named read-outs stand apart in the source and are kept apart here. Marks after values point to notes of the source that are not given here.
Test system: MDD patients carrying the indicated conditions
Description: Folate levels are classified as either low (<=2.5 ng/ml) or normal; and homocysteine levels as either normal or elevated (>=[…]). The presence or absence of at least one […] allele for the MTHFR gene are entered as a dichotomous variable (present or absent). […] Using folate as an example predicator, the presence or absence of a low serum-folate level along with treatment assignment can be entered in a 2×2, factorial ANOVA, using depression improvement scores (baseline minus endpoint HAM-D-17 scores) as the dependant variable. […] Similar analyses (i.e. separate 2×2 ANOVA's) can be performed substituting the presence of low folate levels for the presence of other predictors as described herein. Similarly, the effect of other predictors can be indicated by the interaction term representing the potential modulating influence of those variables.
Particularly, specific genetic and biomarkers that were assessed include the following: • (a) BMI calculation of at least about 30 kg/m^2; • (b) an expression ratio of SAM/SAH smaller than 2.8 (e.g., 2.71) as measured in a plasma sample; • (c) a level of 4-HNE no less than 3.28 μg/mL (as measured in a plasma sample); • (d) presence of rare variants CT or TT at position 677 of SEQ ID NO: 1 corresponding to a portion of a genomic nucleic acid sequence of methylenetetrahydrofolate reductase (MTHFR) (abbreviated as “MTHFR 677” below); • (e) presence of rare variants AG or GG at position 2756 of SEQ ID NO: 2 corresponding to a portion of genomic nucleic acid sequence of methionine synthase (MTR) (abbreviated as “MTR 2756” below); and • (f) presence of rare variants AG or GG at position 66 of SEQ ID NO: 3 corresponding to a portion of genomic nucleic acid sequence of methionine synthase reductase (MTRR) (abbreviated as “MTRR 66” below).
The efficacy effect is determined by measuring the mean change in the HAMD-17 score and HAMD-28 score by the end of Phase I and Phase II, as compared to the baseline.

[1] = Pooled phases, interaction of BMI with the treatment, with SSRI
[2] = Pooled phases, interaction of HNE-his with the treatment, with SSRI
[3] = Pooled phases, interaction of SAM/SAH with the treatment, with SSRI

CN1c2c(nc(N)[nH]c2=O)NC[C@@H]1CNc1ccc(C(=O)N[C@@H](CCC(=O)O)C(=O)O)cc1 [6(S)-5-MTHF, 6(S)-5-methyltetrahydrofolate]
Effect, change in HAMD-17 score (Pooled phases, MTHFR 677 CC and MTR 2756 AA (29,13), with SSRI): 0.722 | Effect, change in HAMD-28 score (Pooled phases, MTHFR 677 CC and MTR 2756 AA, with SSRI): 0.711 | Effect, change in HAMD-17 score (Pooled phases, MTHFR 677 CT or TT and BMI >= 30 kg/m^2 (13,6), with SSRI): −8.090 | Effect, change in HAMD-28 score (Pooled phases, MTHFR 677 CT or TT and BMI >= 30 kg/m^2, with SSRI): −9.884 | Effect, change in HAMD-17 score (Pooled phases, MTHFR 677 CT or TT and HNE-His >= median (11,6), with SSRI): −9.446 | Effect, change in HAMD-28 score (Pooled phases, MTHFR 677 CT or TT and HNE-His >= median, with SSRI): −9.865 | Effect, change in HAMD-17 score (Pooled phases, MTHFR 677 CT or TT and MTR 2756 AG or GG (8,4), with SSRI): −18.71 | Effect, change in HAMD-28 score (Pooled phases, MTHFR 677 CT or TT and MTR 2756 AG or GG, with SSRI): −23.29 | Effect, change in HAMD-17 score (Pooled phases, MTR 2756 AA (45,21), with SSRI): −0.590 | Effect, change in HAMD-17 score (Pooled phases, MTR 2756 AA and BMI < 30 kg/m^2 (17,7), with SSRI): 3.196 | Effect, change in HAMD-28 score (Pooled phases, MTR 2756 AA and BMI < 30 kg/m^2, with SSRI): 3.352 | Effect, change in HAMD-17 score (Pooled phases, MTR 2756 AA and HNE-His < median (26,13), with SSRI): 1.319 | Effect, change in HAMD-28 score (Pooled phases, MTR 2756 AA and HNE-His < median, with SSRI): 2.085 | Effect, change in HAMD-17 score (Pooled phases, MTR 2756 AA and MTRR 66 AA (11,5), with SSRI): −1.373 | Effect, change in HAMD-17 score (Pooled phases, MTR 2756 AA and MTRR 66 AA and HNE-His < median (6,4), with SSRI): 0.466 | Effect, change in HAMD-28 score (Pooled phases, MTR 2756 AA and MTRR 66 AA and HNE-His < median = 3.28 (plasma sample), with SSRI): −2.221 | Effect, change in HAMD-17 score (Pooled phases, MTR 2756 AA and MTRR 66 AA and SAM/SAH >= median (6,3), with SSRI): −3.98* | Effect, change in HAMD-28 score (Pooled phases, MTR 2756 AA and MTRR 66 AA and SAM/SAH >= median, with SSRI): −3.74* | Effect, change in HAMD-28 score (Pooled phases, MTR 2756 AA and MTRR 66 AA, with SSRI): −3.032 | Effect, change in HAMD-17 score (Pooled phases, MTR 2756 AA and SAM/SAH >= median (24,12), with SSRI): 0.054 | Effect, change in HAMD-28 score (Pooled phases, MTR 2756 AA and SAM/SAH >= median, with SSRI): −0.071 | Effect, change in HAMD-28 score (Pooled phases, MTR 2756 AA, with SSRI): −0.047 | Effect, change in HAMD-17 score (Pooled phases, MTR 2756 AG or GG and BMI >= 30 kg/m^2 (10,5), with SSRI): −11.714 | Effect, change in HAMD-28 score (Pooled phases, MTR 2756 AG or GG and BMI >= 30 kg/m^2, with SSRI): −14.433 | Effect, change in HAMD-17 score (Pooled phases, MTR 2756 AG or GG and HNE-His >= median (13,7), with SSRI): −8.072 | Effect, change in HAMD-28 score (Pooled phases, MTR 2756 AG or GG and HNE-His >= median = 3.28 (plasma sample), with SSRI): −9.508 | Effect, change in HAMD-17 score (Pooled phases, MTR 2756 AG or GG and MTRR 66 AG or GG (15,7), with SSRI): −6.976 | Effect, change in HAMD-17 score (Pooled phases, MTR 2756 AG or GG and MTRR 66 AG or GG and BMI >= 30 kg/m^2 (8,4), with SSRI): −10.972 | Effect, change in HAMD-28 score (Pooled phases, MTR 2756 AG or GG and MTRR 66 AG or GG and BMI >= 30 kg/m^2, with SSRI): −15.347 | Effect, change in HAMD-17 score (Pooled phases, MTR 2756 AG or GG and MTRR 66 AG or GG and HNE-His >= median (10,4), with SSRI): −7.942 | Effect, change in HAMD-28 score (Pooled phases, MTR 2756 AG or GG and MTRR 66 AG or GG and HNE-His >= median, with SSRI): −10.241 | Effect, change in HAMD-28 score (Pooled phases, MTR 2756 AG or GG and MTRR 66 AG or GG, with SSRI): −9.348 | Effect, change in HAMD-17 score (Pooled phases, MTR 2756 AG or GG and SAM/SAH < median (10,4), with SSRI): −5.583 | Effect, change in HAMD-28 score (Pooled phases, MTR 2756 AG or GG and SAM/SAH < median = 2.71 (plasma sample), with SSRI): −11.683 | Effect, change in HAMD-17 score (Pooled phases, MTR 2756 AG/GG (20,11), with SSRI): −5.677 | Effect, change in HAMD-28 score (Pooled phases, MTR 2756 AG/GG, with SSRI): −8.243 | Effect, change in HAMD-17 score (Pooled phases, MTRR 66 AA and HNE-His < median (8,5), with SSRI): 2.575 | Effect, change in HAMD-28 score (Pooled phases, MTRR 66 AA and HNE-His < median = 3.28 (plasma sample), with SSRI): −2.626 | Effect, change in HAMD-17 score (Pooled phases, MTRR 66 AA and SAM/SAH >= median (9,6), with SSRI): −2.978 | Effect, change in HAMD-28 score (Pooled phases, MTRR 66 AA and SAM/SAH >= median, with SSRI): −1.221 | Effect, change in HAMD-17 score (Pooled phases, MTRR 66 AG or GG and HNE-His >= median (24,11), with SSRI): −4.850 | Effect, change in HAMD-17 score (Pooled phases, MTRR 66 AG or GG and SAM/SAH < median (24,10), with SSRI): −5.879 | Effect, change in HAMD-28 score (Pooled phases, MTRR 66 AG or GG and SAM/SAH < median = 2.71 (plasma sample), with SSRI): −6.579 | Effect, change in HAMD-17 score (Pooled phases, SAM/SAH < median and HNE-His >= median (19,7), with SSRI): −9.898 | Effect, change in HAMD-28 score (Pooled phases, SAM/SAH < median and HNE-His >= median, with SSRI): −9.500 | Effect, change in HAMD-17 score (Pooled phases, SAM/SAH >= median and HNE-His < median (18,8), with SSRI): 2.107 | Effect, change in HAMD-28 score (Pooled phases, SAM/SAH >= median and HNE-His < median, with SSRI): 2.413 | Effect, change in HAMD-17 score: BMI*treat [1]: −0.233 | Effect, change in HAMD-28 score: BMI*treat [1]: −0.270 | Effect, change in HAMD-17 score: HNE-his*treat [2]: 0.626 | Effect, change in HAMD-28 score: HNE-his*treat [2]: 0.685 | Effect, change in HAMD-17 score: SAM/SAH*treat [3]: 0.882 | Effect, change in HAMD-28 score: SAM/SAH*treat (last line) [3]: 1.112 | Effect, change in HAMD-17 score: baseHAMD-17*treat (Pooled phases, interaction of base HAMD-17 with the treatment, with SSRI): −0.025 | Effect, change in HAMD-28 score: SAM/SAH*treat (first line under HAMD28) (Pooled phases, interaction with the treatment, with SSRI): 0.882 | improvement in HDRS-28 or CGI-S, patients with at least one T allele at MTHFR 677 vs no T allele (in words) (in combination with an SSRI, FIGS. 4A-4B): greater degree of improvement | improvement in HAMD-28 or CGI-S, obese (BMI at least 30 kg/m^2) vs non-obese patients (in words) (in combination with an SSRI, FIGS. 5A-5B): greater degree of improvement

From patent publication US9540691B2, “Assays and methods for selecting a treatment regimen for a subject with depression” (THE GENERAL HOSPITAL CORPORATION, priority 2011, dated 2017)
